The record followed here is EP0314866A2, “Novel alkylated hormonereleasing peptides and method of treating mammals therewith” (The Administrators of The Tulane University Educational Fund, priority 1987, dated 1989).

This assay has as its system plasma growth hormone. Nature of the assay: Evaluation of peptides in vivo in sheep: plasma GH after IV injection of GRF analogs. On the set-up: species or system wether lambs. The following applies: lambs injected intravenously at 100 ng/kg; for Plasma GH (ng/ml) Post-inj Mean: two hours after treatment, means of 8 samples/animal from 8 animals. The protocol:
The purpose of this experiment is to compare the GH releasing activities of several GRF analogs selected for expected high potency and the lack of either a terminal amide or a D-amino acid. The analogs to be compared in wether lambs at 100 ng/kg (IV) are tri-isopropyl-GRF(1-29)-NH₂, tri-isopropyl-GRF(1-29)-OH, tri-isopropyl-GRF(1-40)OH, D-ala², arg^12,21-GRF (1-29)-OH, D-ala², arg^12,21-GRF(1-29)-NH₂, GRF(1-40)-OH and GRF(1-29)-NH₂
A balanced 8 x 8 Latin square design will be used to test the following 8 treatments:
The diet used in these evaluations is a standard sheep diet (pelleted) and fresh water ad libitum. All animals are fed one daily.
The animals are individually identified by numbered ear tags and held in numbered metabolism cages.
Sheep are maintained in individual metabolism cages at all times. Each sheep has previously received an indwelling jugular cannula which is flushed daily with heparinized (400-800 IU/ml) sterile saline to help maintain patency.
All compounds are solubilized at 5 ug/ml in sterile saline containing 1% Tween 80 and injected intravenously at 100 ng/kg. Control lambs receive equal volumes of the vehicle only. The drugs are prepared each day just prior to injection to minimize sticking to the vials.
Blood is collected in heparinized tubes at 15 minute intervals for one hours prior to and for two hours after the treatments are administered. Plasma samples are removed by centrifugation and frozen.
Body weights of each animal is taken at the start of the experiment and once during treatment.
Blood samples are taken from each animal at 15 minute intervals for 3 hours each day during the 8 day trial period. The samples are analyzed for plasma growth hormone (ng/ml). Data obtained are reported below as near values obtained for each treatment.

As to `CC[C@H](C)[C@H](NC(=O)[C@H](C)NC(=O)[C@H](CC(=O)O)NC(=O)[C@H](C)NC(=O)[C@@H](N)Cc1ccc(O)cc1)C(=O)N[C@@H](Cc1ccccc1)C(=O)N[C@H](C(=O)N[C@@H](CC(N)=O)C(=O)N[C@@H](CO)C(=O)N[C@@H](Cc1ccc(O)cc1)C(=O)N[C@@H](CCCNC(=N)N)C(=O)N[C@@H](CCCCN)C(=O)N[C@H](C(=O)N[C@@H](CC(C)C)C(=O)NCC(=O)N[C@@H](CCC(N)=O)C(=O)N[C@@H](CC(C)C)C(=O)N[C@@H](CO)C(=O)N[C@@H](C)C(=O)N[C@@H](CCCNC(=N)N)C(=O)N[C@@H](CCCCN)C(=O)N[C@@H](CC(C)C)C(=O)N[C@@H](CC(C)C)C(=O)N[C@@H](CCC(N)=O)C(=O)N[C@@H](CC(=O)O)C(=O)N[C@H](C(=O)N[C@@H](CCSC)C(=O)N[C@@H](CO)C(=O)N[C@@H](CCCNC(=N)N)C(=O)N[C@@H](CCC(N)=O)C(=O)N[C@@H](CCC(N)=O)C(=O)NCC(=O)N[C@@H](CCC(=O)O)C(=O)N[C@@H](CO)C(=O)N[C@@H](CC(N)=O)C(=O)N[C@@H](CCC(N)=O)C(=O)N[C@@H](CCC(=O)O)C(=O)N[C@@H](CCCNC(=N)N)C(=O)NCC(=O)N[C@@H](C)C(=O)O)[C@@H](C)CC)C(C)C)[C@@H](C)O` [GRF(1-40)-OH], the “Plasma GH (ng/ml) Peak” value was 92.3 ng/mL and the “Plasma GH (ng/ml) Post-inj Mean” value worked out at 25.5 ng/mL.

For the compound `CC[C@H](C)[C@H](NC(=O)[C@H](C)NC(=O)[C@H](CC(=O)O)NC(=O)[C@H](C)NC(=O)[C@H](Cc1ccc(O)cc1)NC(C)C)C(=O)N[C@@H](Cc1ccccc1)C(=O)N[C@H](C(=O)N[C@@H](CC(N)=O)C(=O)N[C@@H](CO)C(=O)N[C@@H](Cc1ccc(O)cc1)C(=O)N[C@@H](CCCNC(=N)N)C(=O)N[C@@H](CCCCNC(C)C)C(=O)N[C@H](C(=O)N[C@@H](CC(C)C)C(=O)NCC(=O)N[C@@H](CCC(N)=O)C(=O)N[C@@H](CC(C)C)C(=O)N[C@@H](CO)C(=O)N[C@@H](C)C(=O)N[C@@H](CCCNC(=N)N)C(=O)N[C@@H](CCCCNC(C)C)C(=O)N[C@@H](CC(C)C)C(=O)N[C@@H](CC(C)C)C(=O)N[C@@H](CCC(N)=O)C(=O)N[C@@H](CC(=O)O)C(=O)N[C@H](C(=O)N[C@@H](CCSC)C(=O)N[C@@H](CO)C(=O)N[C@@H](CCCNC(=N)N)C(=O)N[C@@H](CCC(N)=O)C(=O)N[C@@H](CCC(N)=O)C(=O)NCC(=O)N[C@@H](CCC(=O)O)C(=O)N[C@@H](CO)C(=O)N[C@@H](CC(N)=O)C(=O)N[C@@H](CCC(N)=O)C(=O)N[C@@H](CCC(=O)O)C(=O)N[C@@H](CCCNC(=N)N)C(=O)NCC(=O)N[C@@H](C)C(=O)O)[C@@H](C)CC)C(C)C)[C@@H](C)O` [tri-isopropyl-GRF(1-40)-OH, [N ^α-Isopropyl-Tyr¹, N ^ε-isopropyl-Lys^12,21]GRF(1-40)OH], the “Plasma GH (ng/ml) Peak” value was 108.6 ng/mL and the “Plasma GH (ng/ml) Post-inj Mean” value worked out at 34.0 ng/mL.
